Experimental data as given in the supplement of paper PMC10307832.

Key:
Experiment in all cases: relative viability (nuclei count vs DMSO), 5 days (fraction); higher = more cells survive
IDH-C35 + Decitabine = compound: Cc1ccccc1C(C(=O)NC1CCCCC1)N(C(=O)Cn1ccnc1C)c1cccc(F)c1 [IDH-C35] + Nc1ncn([C@H]2C[C@H](O)[C@@H](CO)O2)c(=O)n1 [Decitabine] (partner 2 µM)
How it was run: (§1)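 Lung cancer cell lines in 1536-well plates got either a single drug or a fixed anchor-drug dose together with five library-drug doses (not always all listed) in √10 steps, by pin tool, on the day after seeding. Nuclei were counted after 5 days, and relative viability is the treated-to-vehicle ratio of nuclei counts. Values are medians of duplicate plates.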

IDH-C35 + Dasatinib = compound: Cc1ccccc1C(C(=O)NC1CCCCC1)N(C(=O)Cn1ccnc1C)c1cccc(F)c1 [IDH-C35] + Cc1nc(Nc2ncc(C(=O)Nc3c(C)cccc3Cl)s2)cc(N2CCN(CCO)CC2)n1 [Dasatinib] (partner 0.075 µM)
How it was run: as §1

IDH-C35 + Vorinostat = compound: Cc1ccccc1C(C(=O)NC1CCCCC1)N(C(=O)Cn1ccnc1C)c1cccc(F)c1 [IDH-C35] + O=C(CCCCCCC(=O)Nc1ccccc1)NO [Vorinostat] (partner 1 µM)
How it was run: as §1

[1] = compound: CC1=C(C(=NN1)C)CC2=C(C3=C(S2)N(C(=O)N(C3=O)C)CC(C)C)C(=O)N4C[C@@H](CO4)O + O=C(CCCCCCC(=O)Nc1ccccc1)NO [Vorinostat] (partner 1 µM)
How it was run: as §1

Row | Cell Line | relative viability (IDH-C35 + Decitabine; first compound 0.08 µM) | relative viability (IDH-C35 + Decitabine; first compound 0.253 µM) | relative viability (IDH-C35 + Decitabine; first compound 0.8 µM) | relative viability (IDH-C35 + Decitabine; first compound 2.53 µM) | relative viability (IDH-C35 + Decitabine; first compound 8 µM) | relative viability (IDH-C35 + Dasatinib; first compound 0.08 µM) | relative viability (IDH-C35 + Dasatinib; first compound 0.253 µM) | relative viability (IDH-C35 + Dasatinib; first compound 0.8 µM) | relative viability (IDH-C35 + Dasatinib; first compound 2.53 µM) | relative viability (IDH-C35 + Dasatinib; first compound 8 µM) | relative viability (IDH-C35 + Vorinostat; first compound 0.08 µM) | relative viability (IDH-C35 + Vorinostat; first compound 0.253 µM) | relative viability (IDH-C35 + Vorinostat; first compound 0.8 µM) | relative viability (IDH-C35 + Vorinostat; first compound 2.53 µM) | relative viability (IDH-C35 + Vorinostat; first compound 8 µM) | relative viability ([1]; first compound 0.0025 µM) | relative viability ([1]; first compound 0.007906 µM) | relative viability ([1]; first compound 0.025 µM) | relative viability ([1]; first compound 0.07906 µM) | relative viability ([1]; first compound 0.25 µM)
1 | NCI-H3122 | 0.432 | 0.428 | 0.386 | 0.473 | 0.458 | 0.725 | 0.487 | 0.56 | 0.865 | 0.777 | 1.01 | 0.947 | 0.793 | 0.773 | 1.08 | 1.03 | 1.12 | 1.1 | 0.731 | 0.918
2 | NCI-H1975 | 0.442 | 0.403 | 0.379 | 0.438 | 0.364 | 0.35 | 0.42 | 0.366 | 0.483 | 0.346 | 0.73 | 0.726 | 0.701 | 0.716 | 0.649 | 0.754 | 0.743 | 0.729 | 0.747 | 0.786
3 | NCI-H1944 | 0.43 | 0.416 | 0.43 | 0.416 | 0.437 | 0.233 | 0.228 | 0.211 | 0.228 | 0.211 | 0.496 | 0.613 | 0.474 | 0.538 | 0.566 | 0.6 | 0.704 | 0.576 | 0.522 | 0.594
4 | LU99A | 0.963 | 0.853 | 0.944 | 0.867 | 0.849 | 0.684 | 0.552 | 0.586 | 0.639 | 0.542 | 0.533 | 0.422 | 0.483 | 0.481 | 0.505 | 0.462 | 0.526 | 0.505 | 0.46 | 0.575
5 | SW 1573 | 0.491 | 0.628 | 0.564 | 0.544 | 0.465 | 0.571 | 0.545 | 0.545 | 0.549 | 0.38 | 0.859 | 0.851 | 0.7 | 0.588 | 0.666 | 0.795 | 0.714 | 0.792 | 0.679 | 0.782
6 | NCI-H2347 | 0.647 | 0.651 | 0.661 | 0.599 | 0.654 | 0.337 | 0.3 | 0.243 | 0.343 | 0.282 | 0.4 | 0.682 | 0.531 | 0.59 | 0.656 | 0.588 | 0.624 | 0.544 | 0.559 | 0.431
7 | NCI-H2009 | 0.354 | 0.408 | 0.387 | 0.321 | 0.372 | 0.309 | 0.33 | 0.341 | 0.311 | 0.303 | 0.762 | 0.688 | 0.758 | 0.69 | 0.681 | 0.703 | 0.785 | 0.735 | 0.756 | 0.701
8 | HCC-15 | 0.61 | 0.546 | 0.689 | 0.579 | 0.635 | 0.542 | 0.639 | 0.599 |  | 0.59 | 0.796 | 0.857 | 0.877 |  | 0.707 | 1.04 | 0.829 | 0.839 | 0.875 | 0.81
9 | HCC-44 | 0.997 | 0.914 | 0.91 | 0.939 | 0.901 |  |  |  |  |  | 1.11 | 1.09 | 1.12 | 1.13 | 1.11 | 1.08 | 1.12 | 1.03 | 1.05 | 1.18
10 | COR-L23 | 0.426 | 0.471 | 0.421 | 0.478 | 0.459 | 0.479 | 0.438 | 0.48 | 0.443 | 0.445 | 0.503 | 0.421 | 0.404 | 0.408 | 0.409 | 0.499 | 0.378 | 0.37 | 0.422 | 0.484
11 | HCC-78 | 0.701 | 0.579 | 0.703 | 0.605 | 0.707 | 0.361 | 0.315 | 0.496 | 0.325 | 0.435 | 0.447 | 0.484 | 0.457 | 0.381 | 0.531 | 0.521 | 0.552 | 0.497 | 0.518 | 0.439
12 | NCI-H727 | 0.797 | 0.979 | 0.708 | 0.845 | 0.939 | 0.514 | 0.315 | 0.366 | 0.388 | 0.446 | 1.2 | 1.08 | 1.02 | 1.17 | 1.16 | 1.16 | 1.25 | 1.05 | 1.05 | 1.13
13 | NCI-H2087 | 0.284 | 0.25 | 0.274 | 0.302 | 0.254 | 0.944 | 0.995 | 0.9 |  | 0.814 | 0.821 | 0.715 | 0.74 | 0.624 | 0.633 | 0.841 | 0.581 | 0.578 | 0.462 | 0.875
14 | NCI-H2228 |  |  |  |  |  | 0.571 | 0.526 | 0.509 | 0.53 | 0.537 | 0.64 | 0.632 | 0.563 | 0.754 | 0.648 | 0.559 | 0.811 | 0.681 | 0.649 | 0.9
15 | NCI-H1648 |  | 0.598 | 0.502 | 0.51 | 0.441 |  |  |  |  |  |  | 0.415 | 0.523 | 0.443 | 0.525 | 0.787 | 0.413 | 0.42 | 0.406 | 0.441
16 | NCI-H1563 |  |  |  |  |  | 0.455 | 0.472 | 0.446 | 0.487 | 0.465 |  |  |  |  |  |  |  |  |  | 
17 | A549 | 0.313 | 0.263 | 0.312 | 0.195 | 0.223 |  |  |  |  |  |  |  |  |  |  |  |  |  |  | 
18 | NCI-H1623 |  |  |  |  |  | 0.475 | 0.504 | 0.534 | 0.535 | 0.474 |  |  |  |  |  |  |  |  |  | 
19 | IA-LM |  |  |  |  |  |  |  |  |  |  | 1 | 0.878 | 0.881 |  | 1.05 | 0.91 | 1.19 |  | 0.942 | 1.08
20 | CAL-12T |  |  |  |  |  | 0.39 | 0.613 | 0.411 | 0.496 | 0.396 | 0.69 | 0.947 | 0.815 | 0.882 | 0.791 | 0.956 | 0.962 | 0.827 | 0.801 | 0.772
